Columns and labels:
[1] = test system: primary CD34+ AML cells; assay: CCK-8 cell viability assay on primary CD34+ AML cells; type: cell-based, human; conditions: for viability at 6 µM: Homo sapiens, 48 h, CCK-8, read-out: cells viable (average)
Description: The mononuclear cells were further enriched for CD34 positive cells using the MACS CD34 MicroBead kit following the manufacturer's protocol. Enriched CD34 cell-purity was measured by flow cytometry-based quantification of cells stained using an anti-CD34-FITC antigen. Isolated CD34^+ cells were pre-incubated in the IMDM-based serum-free media for 1 h before the addition of drugs. PepE was dissolved in DMSO to make a 100 mM stock solution and stored in aliquots at – 20 °C. The 100 mM stock solution was diluted with DMSO to 10 mM and then diluted with PBS to 1 mM before treating the cells at the indicated concentrations. DMAPE and Ara-C were diluted in PBS to 1 mM concentration before use.
(§1) Unless otherwise mentioned, 2 × 10^4 cells were seeded at 96-well plates (Corning, New York, USA) in the IMDM-based serum-free media for 1 h. Then, the cells were incubated with different concentrations of PepE and DMAPE at 37 °C in a 5% CO2 incubator for 48 h. At the end of the treatment, 10 μL CCK-8 solution was added to each well and incubated for an additional 2 h at 37 °C, and the absorbance at 450 nm was measured with a microplate reader (Thermo Scientific, Multiskan GO, Finland). Inhibition ratio (%) was calculated as [(absorbance of control − absorbance of the test sample)/absorbance of control] x 100%.

[2] = target: T1, TrxR1 in KG-1a CD34+ cells (Homo sapiens, UniProt Q16881); assay: Imaging TrxR1 activity in cells with TR-green; type: cell-based; conditions: 2 and 6 μM, dose-dependent
T1 construct: image TrxR activity in intact isolated KG-1a CD34^+ cells; endogenous in cells; host or cells: KG-1a CD34+ cells
T1 sequence (Q16881 1-499 isoform Q16881-5): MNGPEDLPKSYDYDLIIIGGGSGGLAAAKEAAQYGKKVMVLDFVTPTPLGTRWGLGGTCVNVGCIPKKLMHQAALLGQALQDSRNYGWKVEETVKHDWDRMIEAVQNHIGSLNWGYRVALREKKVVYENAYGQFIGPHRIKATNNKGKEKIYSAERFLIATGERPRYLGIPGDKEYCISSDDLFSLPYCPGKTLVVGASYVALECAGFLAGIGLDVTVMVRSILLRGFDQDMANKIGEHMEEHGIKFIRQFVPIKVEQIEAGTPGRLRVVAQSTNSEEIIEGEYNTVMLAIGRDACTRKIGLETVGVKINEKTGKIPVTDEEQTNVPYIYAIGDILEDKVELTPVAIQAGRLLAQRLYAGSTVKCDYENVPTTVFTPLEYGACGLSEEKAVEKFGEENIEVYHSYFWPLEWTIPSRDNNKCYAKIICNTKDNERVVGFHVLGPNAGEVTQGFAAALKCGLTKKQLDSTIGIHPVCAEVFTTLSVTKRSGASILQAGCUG
Description: The specific fluorescence probe of TrxR – TR-green was employed to image TrxR activity in intact isolated KG-1a CD34^+ cells using previously published methods. Briefly, KG-1a CD34^+ cells (5 × 10^5) were incubated with 2 μM and 6 μM PepE or DMAPE (Previously reported TrxR1 inhibitor Parthenolide was used as the positive control, 0.1% DMSO was used as the negative control) in 6-well plates for 12 h, then 10 μM TR-green was added to each plate and incubated at 37 °C for 3 h. Fluorescence and brightfield images were captured using an inverted fluorescence microscope IX-73 (Olympus) with Metamorph software (Molecular Devices).

[3] = test system: TrxR1 overexpressed KG-1a cells (ACTV cells); assay: CCK-8 viability in TrxR1 overexpressed KG-1a cells; type: cell-based, human; conditions: 48 h
Description: as §1
For TrxR1 overexpression experiment, KG-1a CD34^+ cells were seeded in a six-well plate at 2.5 × 10^5/well in antibiotic-free IMDM medium for 24 h, then cells were transfected with TrxR1 CRISPR activation plasmids (control CRISPR plasmids as a negative control) according to the manufacturer's instructions. Briefly, for each transfection, 0.15 ml of the Plasmid DNA solution (containing 3 μg of TrxR1 activation or control DNA plasmids) and 0.15 ml of diluted UltraCruz transfection reagent (Santa Cruz Biotech, sc-395739) were gently mixed and added to the cells. […] The activation efficiencies were evaluated by western blot and RT-qPCR analyses.

[4] = test system: Trx1 in KG-1a CD34+ cells; assay: Trx1 redox state assay (PAO-Sepharose pull down); type: cell-based, human; conditions: 5 μM, 24 h
Description: The redox state of Trx1 was determined using Liu's method. Phenylarsine oxide (PAO)-Sepharose was prepared by immobilization of PAO on Sepharose 4B according to Liu's report. The reduced form was pulled down on the Sepharose, while the oxidized form remained in the solution. Briefly, the KG-1a CD34^+ cells were treated with 5 μM PepE/DMAPE or vehicle control (DMSO) for 24 h. The cellular proteins were extracted by RIPA buffer and quantified by the Bradford method. The fully oxidized and reduced controls were prepared by incubating the non-treated cell lysate with diamide (2 mM) and TCEP (2 mM) for 1 h at 37 °C, respectively. The cell lysates were then incubated with PAO-sepharose on a rotating shaker for 1 h at room temperature. The supernatant was collected and the PAO-sepharose was washed with Tris-EDTA buffer. Then, the reduced Trx1 was eluted using Tris-EDTA buffer containing DPMS (10 mM). All samples were separated on SDS-PAGE and electrotransferred to PVDF membrane for western blot analyses. The bands were analyzed using Gel-pro 32 software.

Row | SMILES | concentration range inducing apoptosis of human primary CD34+ AML cells [1] [µM] | viability at 6 µM [1] [%] | TR-green fluorescence intensities (cellular TrxR1 activity) [2] | toxicity against ACTV cells vs CTRL ACTV cells [3] | oxidized form of Trx [4]
1 | C=C1C(=O)OC[C@H]1C(c1cc(OC)c2c(c1)OCO2)c1cc(OC)c2c(c1)OCO2 [PepE, Peperomin E] | 4 to 6 | 24 | significant decrease | significant lower toxicity | significantly increased
2 | COc1cc(C(c2cc(OC)c3c(c2)OCO3)[C@@H]2COC(=O)[C@H]2CN(C)CCO)cc2c1OCO2 [DMAPE, (2S,3S)-6-Methyl (hydroxyethyl) amino-2,6-dihydropeperomin E] | – | 28.9 | significant decrease | significant lower toxicity | significantly increased
